According to patent US11096985B2, “Antimicrobial peptides, their variants and uses” (priority 2015, dated 2021):
Where a SMILES comes first, the peptide text is derived from it. [ ]: non-standard residue; d: D form.

Assays:
[1] = test system: clinical strains of Escherichia coli; experiment: MIC, clinical strains of E. coli; format: cell-based; parameters: unit: μg/ml; conditions: microdilution, Muller Hinton broth-cation adjusted, 0.02% BSA, 0.2% acetic acid
Procedure: (§1) Minimum inhibition concentrations (MICs) were determined against Escherichia coli (ATCC 25922), Staphylococcus aureus (ATCC 25923), Klebsiella pneumoniae (ATCC 10031) and Pseudomonas aeruginosa (ATCC 27853). Also clinical strains of E. coli, K. pneumoniae, E. cloacae, P. aeruginosa, Serratia marcescens, Proteus mirabilis, S. pneumoniae, Acinetobacter baumannii, A. johnsonii and S. aureus were used for MICs assays. Additionally, clinical strains of yeast including Candida albicans, C. glabrata, C. parapsilosis and C. quillermondiae were used. The susceptibility of these microorganisms to Chain peptides were determined using micro broth dilution assay. Colonies of the respective microorganism from Muller Hinton (MH) agar plates incubated overnight were suspended in MH broth media and final concentration of microorganism was adjusted to 5.0×10^5 cfu/ml. An aliquot of 10 μl of each Chain peptide, or gentamicin, tetracycline as reference antibiotics were added in differing concentrations along with 90 μl of bacterial suspension to 96 well polypropylene plates and incubated at 37° C. for 20 to 24 hours. Concentrations of Chain peptides and reference antibiotics ranged from 0.125 to 128 μg/ml and the MICs were recorded as the lowest concentration with no visual growth of bacteria. Similarly, antifungal MICs were tested in Potato dextrose broth.
(§2) Clinical strains of yeasts including Candida albicans, C. glabrata, C. parapsilosis and C. quillermondiae were also tested with the 12 Chain peptides. The minimum inhibitory concentration (MICs) varied between these peptides and are presented in Tables 4a, 4b, 4c and 5a, 5b, 5c. Peptides Chain 105, 201 and 308 are broad spectrum antimicrobials with MICs between 0.5-32 μg/ml against all the bacteria and yeasts tested, except Serratia marcescens and Proteus mirabilis, against which the MICs were between 64-128 μg/ml. Peptide Chain 306 has narrow spectrum activity against E.coli at 1 μg/ml and for the rest of the bacterial strains at >32 μg/ml (FIG. 10).

[2] = test system: clinical strains of Klebsiella pneumoniae; experiment: MIC, clinical strains of K. pneumoniae; format: cell-based; parameters: unit: μg/ml; conditions: microdilution, Muller Hinton broth-cation adjusted, 0.02% BSA, 0.2% acetic acid
Procedure: as §1, §2

[3] = test system: clinical strains of Pseudomonas aeruginosa; experiment: MIC, clinical strains of P. aeruginosa; format: cell-based; parameters: unit: μg/ml; conditions: microdilution, Muller Hinton broth-cation adjusted, 0.02% BSA, 0.2% acetic acid
Procedure: as §1, §2

[4] = test system: clinical strains of Serratia marcescens; experiment: MIC, clinical strains of Serratia marcescens; format: cell-based; parameters: unit: µg/mL; conditions: microdilution, Muller Hinton broth-cation adjusted, 0.02% BSA, 0.2% acetic acid
Procedure: as §1, §2

[5] = test system: clinical strains of Proteus mirabilis; experiment: MIC, clinical strains of Proteus mirabilis; format: cell-based; parameters: unit: µg/mL; conditions: microdilution, Muller Hinton broth-cation adjusted, 0.02% BSA, 0.2% acetic acid
Procedure: as §1, §2

[6] = test system: clinical strains of Enterobacter cloacae; experiment: MIC, clinical strains of Enterobacter cloacae; format: cell-based; parameters: unit: μg/ml; conditions: microdilution, Muller Hinton broth-cation adjusted, 0.02% BSA, 0.2% acetic acid
Procedure: as §1, §2

[7] = test system: clinical strains of Staphylococcus aureus; experiment: MIC, clinical strains of S. aureus; format: cell-based; parameters: unit: μg/ml; conditions: microdilution, Muller Hinton broth-cation adjusted, 0.02% BSA, 0.2% acetic acid
Procedure: as §1, §2

[8] = test system: clinical strains of Streptococcus pneumoniae; experiment: MIC, clinical strains of Streptococcus pneumoniae; format: cell-based; parameters: unit: µg/mL; conditions: microdilution, Muller Hinton broth-cation adjusted, 0.02% BSA, 0.2% acetic acid
Procedure: as §1, §2

[9] = test system: clinical strains of Candida albicans; experiment: MIC, clinical yeast strains, Candida albicans; format: cell-based; parameters: unit: μg/ml
Method in brief: (§3)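 MH broth; 5.0×10^5 cfu/ml; peptides 0.125–128 μg/ml; 37° C., 20–24 h; visual no-growth endpoint. Fungal MICs in potato dextrose broth.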

[10] = test system: clinical strains of C. glabrata; experiment: MIC, clinical yeast strains, C. glabrata; format: cell-based, Candida glabrata; parameters: unit: μg/ml
Method in brief: as §3

[11] = test system: clinical strains of C. parapsilosis; experiment: MIC, clinical yeast strains, C. parapsilosis; format: cell-based, Candida parapsilosis; parameters: unit: μg/ml
Method in brief: as §3

[12] = test system: clinical strains of C. quillermondiae; experiment: MIC, clinical yeast strains, C. quillermondiae; format: cell-based; conditions: C. quillermondiae clinical yeast strain 1
Method in brief: as §3

Structure (SMILES): CC(C)C[C@@H](NC(=O)[C@@H](Cc1c[nH]c2ccccc12)NC(=O)[C@@H](Cc1ccccc1)NC(=O)[C@@H](Cc1c[nH]c2ccccc12)NC(=O)[C@@H](CCCCN)NC(=O)[C@@H](CCCNC(=N)N)NC(=O)[C@H](N)Cc1c[nH]c2ccccc12)C(=O)N[C@H](Cc1ccccc1)C(=O)N[C@H](CCCCN)C(=O)N[C@H](CCCCN)C(=O)N[C@H](CCCNC(=N)N)C(=O)O [Chain309D] (H-[dW][dR][dK][dW][dF][dW][dL][dF][dK][dK][dR]-OH)
- Minimum inhibitory concentration ([1]; Escherichia coli clinical strain 1): 0.5
- Minimum inhibitory concentration ([1]; Escherichia coli clinical strain 2): 32
- Minimum inhibitory concentration ([1]; Escherichia coli clinical strain 3): 16
- Minimum inhibitory concentration ([1]; Escherichia coli clinical strain 4): 32
- Minimum inhibitory concentration ([1]; Escherichia coli clinical strain 5): 16
- Minimum inhibitory concentration ([2]; Klebsiella pneumoniae clinical strain 1): 128
- Minimum inhibitory concentration ([2]; Klebsiella pneumoniae clinical strain 2): 32
- Minimum inhibitory concentration ([2]; Klebsiella pneumoniae clinical strain 3): >128
- Minimum inhibitory concentration ([2]; Klebsiella pneumoniae clinical strain 4): 32
- Minimum inhibitory concentration ([2]; Klebsiella pneumoniae clinical strain 5): 128
- Minimum inhibitory concentration ([3]; Pseudomonas aeruginosa clinical strain 1): 16
- Minimum inhibitory concentration ([3]; Pseudomonas aeruginosa clinical strain 2): 32
- Minimum inhibitory concentration ([3]; Pseudomonas aeruginosa clinical strain 3): 16
- Minimum inhibitory concentration ([3]; Pseudomonas aeruginosa clinical strain 4): 32
- Minimum inhibitory concentration ([3]; Pseudomonas aeruginosa clinical strain 5): 8
- Minimum inhibitory concentration ([4]; Serratia marcescens clinical strain 1): >128
- Minimum inhibitory concentration ([4]; Serratia marcescens clinical strain 2): >128
- Minimum inhibitory concentration ([4]; Serratia marcescens clinical strain 3): >128
- Minimum inhibitory concentration ([4]; Serratia marcescens clinical strain 4): >128
- Minimum inhibitory concentration ([4]; Serratia marcescens clinical strain 5): >128
- Minimum inhibitory concentration ([5]; Proteus mirabilis clinical strain 1): >128
- Minimum inhibitory concentration ([5]; Proteus mirabilis clinical strain 2): >128
- Minimum inhibitory concentration ([5]; Proteus mirabilis clinical strain 3): >128
- Minimum inhibitory concentration ([5]; Proteus mirabilis clinical strain 4): >128
- Minimum inhibitory concentration ([5]; Proteus mirabilis clinical strain 5): >128
- Minimum inhibitory concentration ([6]; Enterobacter cloacae clinical strain 1): >128
- Minimum inhibitory concentration ([6]; Enterobacter cloacae clinical strain 2): 128
- Minimum inhibitory concentration ([6]; Enterobacter cloacae clinical strain 3): 64
- Minimum inhibitory concentration ([6]; Enterobacter cloacae clinical strain 4): 64
- Minimum inhibitory concentration ([6]; Enterobacter cloacae clinical strain 5): 32
- Minimum inhibitory concentration ([7]; Staphylococcus aureus clinical strain 1): 8
- Minimum inhibitory concentration ([7]; Staphylococcus aureus clinical strain 2): 16
- Minimum inhibitory concentration ([7]; Staphylococcus aureus clinical strain 3): 8
- Minimum inhibitory concentration ([7]; Staphylococcus aureus clinical strain 4): 8
- Minimum inhibitory concentration ([7]; Staphylococcus aureus clinical strain 5): 8
- Minimum inhibitory concentration ([8]; Streptococcus pneumoniae clinical strain 1): 64
- Minimum inhibitory concentration ([8]; Streptococcus pneumoniae clinical strain 2): 64
- Minimum inhibitory concentration ([8]; Streptococcus pneumoniae clinical strain 3): 64
- Minimum inhibitory concentration ([8]; Streptococcus pneumoniae clinical strain 4): 64
- Minimum inhibitory concentration ([8]; Streptococcus pneumoniae clinical strain 5): 64
- Minimum inhibitory concentration ([9]; Candida albicans clinical yeast strain 1): 32
- Minimum inhibitory concentration ([9]; Candida albicans clinical yeast strain 2): 32
- Minimum inhibitory concentration ([9]; Candida albicans clinical yeast strain 3): 16
- Minimum inhibitory concentration ([9]; Candida albicans clinical yeast strain 4): 16
- Minimum inhibitory concentration ([9]; Candida albicans clinical yeast strain 5): 32
- Minimum inhibitory concentration ([10]; C. glabrata clinical yeast strain 1): 32
- Minimum inhibitory concentration ([10]; C. glabrata clinical yeast strain 2): 64
- Minimum inhibitory concentration ([10]; C. glabrata clinical yeast strain 3): 4
- Minimum inhibitory concentration ([10]; C. glabrata clinical yeast strain 4): 128
- Minimum inhibitory concentration ([11]; C. parapsilosis clinical yeast strain 1): 64
- Minimum inhibitory concentration ([11]; C. parapsilosis clinical yeast strain 2): 64
- Minimum inhibitory concentration ([11]; C. parapsilosis clinical yeast strain 3): 32
- Minimum inhibitory concentration ([11]; C. parapsilosis clinical yeast strain 4): 16
- Minimum inhibitory concentration [12]: 8
